Consider six molecules from patent EP0398426A1, “Antirhinoviral (thio)morpholinyl and piperazinyl alkylphenol ethers” (JANSSEN PHARMACEUTICA N.V., priority 1989, dated 1990).

Structures are written as SMILES. ≈ marks a conversion by molar mass, not a printed value.

Assay [1] concerns Human Rhinovirus serotypes HRV- 2,-29,-39,-85,-9,-15,-51,-59,-63,-89,-41. Put plainly: Picornavirus Minimal Inhibitory Concentration Test (cytopathic effect reduction assay), first panel of rhinoviruses. The assay is classed as cell-based. As to conditions: Human rhinovirus sp.; medium value of the IC50-values of all serotypes of the first panel; Ohio Hela cells, 3 to 5 days at 33°C; concentration protecting 50% of the cells from cytopathic effects; read-out: Med₁. As for the experimental part:
(§1) The Minimal Inhibitory Concentration of the compounds of the present invention against the Human Rhinovirus strains (HRV) -2,-9,-14,-15,-29,-39,-41,-42,-45,-51,-59,-63, -70,-72,-85,-86,-89 was determined by a standard cytopathic effect reduction assay as follows. To each of the ninty six (96) wells of a microtiter 96 well tissue culture plate there was added 60 µl of a Ohio Hela cell maintenance medium [Eagle's Basal medium supplemented with 5% Foetal Calf Serum (FCS)]. To two wells there was added 60 µl of an appropriate starting dilution of a compound of formula (I) and two-fold dilutions were made to cover a wide range of compound concentrations. Subsequently there were added 120 µl of an infectious solution of virus in Eagle's Basal Medium with 2% Hepes buffer, 2% FCS and 30 mM MgCl₂ to all wells except cell and compound controls. Said infectious virus solution having a TCID₅₀-value (Tissue Culture Infectious Dose) of about 100.
(§2) The TCID₅₀-value is the dose of viruses which initiates a cytopathic effect in 50% of the inoculated cells. 150 µl of the thus obtained virus-compound mixtures were then transferred to microtitre plates with subconfluent Ohio Hela Cells, grown in 100 µl of maintenance medium. Appropriate virus controls, cell controls and compound controls were included in each test. […] The IC₅₀-value for each virus-compound series was taken as the concentration in ng/ml that protected 50% of the cells from cytopathic effects with respect to the untreated controls. In the standard test procedure, the compounds were tested against two panels of rhinoviruses, a first panel consisting of serotypes HRV- 2,-29,-39,-85,-9,-15,-51,-59,-63,-89,-41 and the other panel consisting of HRV-42,-45,-14,-70,-72 and -86.
(§3) The IC₅₀-value for each rhinovirus serotype was determined, and the efficacy of each compound was determined in terms of the Med₁-value and Med₂-value, which is the medium value of the IC₅₀-values of all serotypes from the first and second panel respectively.
Background: Cytopathic effects are the visible damage that an infection or toxin causes in cultured cells.

The subject of assay [2] is Human Rhinovirus serotypes HRV-42,-45,-14,-70,-72 and -86. In words: Picornavirus Minimal Inhibitory Concentration Test (cytopathic effect reduction assay), second panel of rhinoviruses. Conditions: Human rhinovirus sp., HRV42, HeLa, read-out: Med₂. The assay is classed as cell-based. On the procedure:
as §1, §2, §3

As to `CCOC(=O)c1ccc(OCCC2CN(c3ccc(C)nn3)CCO2)cc1` (stereo not drawn) [compound 26], the values for the IC50 in assay [1] and in assay [2] were 5 ng/mL (≈ 0.0135 µM) and 29 ng/mL (≈ 0.0781 µM), respectively.

`CCOC(=O)c1ccc(OCCC2CN(c3ccc(Cl)nn3)CCO2)cc1` (stereo not drawn) [compound 11]: the IC50 came to 6 ng/mL (≈ 0.0153 µM) in assay [1] and 29 ng/mL (≈ 0.074 µM) in assay [2].

As for `CCOC(=O)c1ccc(OCCC2CN(c3nnc(C)s3)CCO2)cc1` (stereo not drawn) [compound 21], the IC50 was determined as 6 ng/mL (≈ 0.0159 µM) in assay [1] and 21 ng/mL (≈ 0.0556 µM) in assay [2].

Take `CCOC(=O)c1ccc(OCCC2CN(c3ccc(I)nn3)CCO2)cc1` (stereo not drawn) [compound 20]: the IC50 in assay [1] worked out at 2 ng/mL (≈ 0.00414 µM); in assay [2], 12 ng/mL (≈ 0.0248 µM).

`CCOC(=O)c1ccc(OCCC2CN(c3ccc(Br)nn3)CCO2)cc1` (stereo not drawn) [compound 17]: the values for the IC50 in assay [1] and in assay [2] were 2 ng/mL (≈ 0.00458 µM) and 22 ng/mL (≈ 0.0504 µM), respectively.

As to `CCOC(=O)c1ccc(OCCC2CN(c3ccc(SC)nn3)CCO2)cc1` (stereo not drawn) [compound 23, ethyl 4-[2-[4-[6-(methylthio)-3-pyridazinyl]-2-morpholinyl]ethoxy]benzoate], the IC50 came to 3 ng/mL (≈ 0.00743 µM) in assay [1] and 12 ng/mL (≈ 0.0297 µM) in assay [2].
